Results as given in patent publication US20250287948A1, “TOBACCO ALKALOID INSECT REPELLENT IN PLANTS” (Philip Morris Products S.A., priority 2022, published 2025).
“And” between values parts separate entries of the source, which are not always exact repeats. Identical values can stand only once.

Assays:
[1] = tested on: adult whitefly; assay: Tube test assay: repelling effect with whitefly introduced at later infestation time points (Example 4); format: in vivo; conditions: concentration 5 percent; for repelling effect: remaining 5 days (up to 123 hours) of the evaluation period
Description: The repelling effect of anatabine on adult whitefly was evaluated in a further comparative study which introduced additional whitefly and freshly treated leaves at set evaluation time points. For the purpose of the study, a tube test assay was performed using solutions of anatabine and DEET at a concentration of 5 percent together with a placebo solution, as shown in Table 10. The placebo control defines the baseline, against which the repelling effect is then calculated.
Whitefly were introduced into the tube at infestation time points: 48, 72 and 120 hours and the repelling effect was measured after 3 hours at evaluation time points: 51, 75 and 123 hours.

[2] = tested on: adult whitefly; assay: Tube test assay: repelling effect on adult whitefly, treated leaf disks (Examples 1-3); format: in vivo
Description: For the purpose of the study, a tube test assay was performed using solutions of anatabine and DEET prepared according to Table 1.
For the purpose of the study, leaf disks were dipped for a total time of 30 seconds into the prepared solutions and left to dry for 10 minutes at room temperature. Subsequently, the leaf disks were deposited at the bottom of glass tubes and a minimum of 20 adult whiteflies were introduced into the tubes. […] The repelling effect of both anatabine and DEET is shown in Table 2 and was calculated by counting the number of whitefly landing on a leaf compared to the placebo control, using the Abbott's formula: […]
The placebo control defines the baseline, against which the repelling effect is then calculated according to the formula above.
For the purpose of the study, a tube test assay was performed using solutions of anatabine at three different concentrations prepared according to Table 3.
The placebo control defines the baseline, against which the repelling effect is then calculated.
For the purpose of the study, leaf disks were dipped for a total time of 30 seconds into the prepared solutions and left to dry for 10 minutes at room temperature. Subsequently, the leaf disks were deposited at the bottom of glass tubes and a minimum of 20 adult whiteflies were introduced into the tubes. The repelling effect of anatabine at three different concentrations was measured at different time points: after 1 hour, 3 hours, 6 hours. the repelling effect of anatabine at different concentrations is shown in Table 4.
A concentration of 5 percent was chosen based on the results of Example 2. […] In the placebo control the leaves were treated with solvent only. The placebo control defines the baseline, against which the repelling effect is then calculated.
(§1) For the purpose of the study, leaf disks were dipped for a total time of 30 seconds into the prepared solutions and left dry for 10 minutes at room temperature. Subsequently, the leaf disks were deposited at the bottom of glass tubes and a minimum of 20 adult whiteflies were introduced into the tubes.

[3] = tested on: whitefly; assay: Whitefly mortality on treated leaves; format: in vivo; conditions: concentration 5 percent
Description: as §1
The study also assessed the whitefly mortality rate over the duration of the evaluation period. […]

[4] = tested on: leaves; assay: Damage to leaves caused by treatment
Description: as §1, with “left to” for “left”
as §1

[5] = tested on: whitefly; assay: Presence of eggs on treated leaves, evaluated visually; format: in vivo; conditions: concentration 5 percent; evaluation period of up to 6 days (144 hours)
Description: In addition, the presence and amount of eggs on the leaves after a period of 48 hours was evaluated visually and the results are shown in Table 7.
The presence of eggs was visually monitored 24 hours after each infestation time point.

[6] = infestation time 48 hour, evaluation time 51 hour
[7] = infestation time 72 hour, evaluation time 75 hour
[8] = infestation time 120 hour, evaluation time 123 hour
[9] = concentration 1.0 percent, evaluation time 0 hour
[10] = concentration 1.0 percent, evaluation time 1 hour
[11] = concentration 1.0 percent, evaluation time 3 hour
[12] = concentration 5 percent, evaluation time 0 hour (Example 3)
[13] = concentration 5 percent, evaluation time 6 hour (Example 3)
[14] = concentration 5 percent, evaluation time 24 hour (Example 3)
[15] = concentration 5 percent, evaluation time 48 hour (Example 3)

SMILES	Mean Repellence [1, 6]	Mean Repellence [1, 7]	Mean Repellence [1, 8]	repelling effect [1]	Mean Repellence [2, 9]	Mean Repellence [2, 10]	Mean Repellence [2, 11]	Mean Repellence [2, 12]	Mean Repellence [2, 13]	Mean Repellence [2, 14]	Mean Repellence [2, 15]	Mean Mortality ([3]; evaluation time 0 hour)	Mean Mortality ([3]; evaluation time 6 hour)	Mean Mortality ([3]; evaluation time 24 hour)	Mean Mortality ([3]; evaluation time 48 hour)	also measured
CCN(CC)C(=O)c1cccc(C)c1 [DEET, N,N-Diethyl-meta-toluamide, reference compound]	54.1%	55.9%	48.9%	below 50%	87.5%	90.0%	68.0%	100%	100%	94.9%	93% and 93.4%	0.0%	1.4%	50.0%	80.3%	drop of efficacy ([1]; after the first 48 hours): ~50%; drop of the repelling effect ([2]; concentration 1.0 percent, after 6 hours): ~40%
COC(=O)c1ccccc1 [Methyl Benzoate, methyl benzoate, reference compound]								100%	47.2%	76.8%	76.5%	0.0%	1.4%	47.6%	77.8%	drop of the repelling effect ([2]; concentration 5 percent, by the end of the 48 hours evaluation period): ~25%
C1=CCC(c2cccnc2)NC1 (stereo not drawn) [Anatabine, anatabine]	100%	85.3%	82.2%	more than 80%	81.3%	90.0%	96.0%	100%	100%	100%	100%	0.0%	7.6%	41.3%	84.6%	Leaves damage ([4]; concentration 5 percent, evaluation time 48 hour): did not cause any damage; damage to leaves ([4]; concentrations of 5 percent or less (Example 2)): not damaged; Mean Repellence ([2]; concentration 1.0 percent, evaluation time 6 hour): 88.9%; repelling effect ([2]; concentration 1.0 percent, throughout the evaluation period of 6 hours): over 80%; Mean Repellence ([2]; concentration 2 percent, evaluation time 3 hour): 100%; Mean Repellence ([2]; concentration 2 percent, evaluation time 6 hour): 100%; Mean Repellence ([2]; concentration 5 percent, evaluation time 3 hour (Example 2)): 100%; Mean Repellence ([2]; concentration 5 percent, evaluation time 6 hour (Example 2)): 100%; repelling effect ([2]; concentration 5 percent, throughout the evaluation period of 48 hours): 100%; Mean Repellence ([2]; concentration 10 percent, evaluation time 3 hour): 100%; Mean Repellence ([2]; concentration 10 percent, evaluation time 6 hour): 100%; repelling effect ([2]; regardless of the concentration (2, 5, 10 percent), 3 and 6 hours): 100%; number of eggs observed on the leaves [5]: remained low
